Laboratory results from patent US7786308B2 (priority 2005, dated 2010).
Where two headings read alike, the source gives them in different places.

Columns and labels:
Experiment in all cases: cell-based
M2 muscarinic receptor = target: T1, M2 muscarinic receptor (Homo sapiens, UniProt P08172); settings: for Emax: read-out: M2 Efficacy
T1 construct: expressed in transfected cells; host or cells: CHO (M2-CHO)
T1 sequence (P08172 1-466): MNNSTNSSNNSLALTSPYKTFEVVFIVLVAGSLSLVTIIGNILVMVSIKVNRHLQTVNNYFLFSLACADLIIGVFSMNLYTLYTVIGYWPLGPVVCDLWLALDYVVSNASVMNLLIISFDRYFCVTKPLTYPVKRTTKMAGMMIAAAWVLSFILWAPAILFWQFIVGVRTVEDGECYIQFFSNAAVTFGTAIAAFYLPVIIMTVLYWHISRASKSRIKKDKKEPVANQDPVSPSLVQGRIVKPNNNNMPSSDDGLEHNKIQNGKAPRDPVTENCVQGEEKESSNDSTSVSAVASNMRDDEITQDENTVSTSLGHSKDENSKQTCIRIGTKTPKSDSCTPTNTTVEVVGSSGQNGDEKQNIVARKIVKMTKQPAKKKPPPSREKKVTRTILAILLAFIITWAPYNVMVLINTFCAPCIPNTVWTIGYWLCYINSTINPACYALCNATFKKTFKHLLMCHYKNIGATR

M3 muscarinic receptor = target: T2, M3 muscarinic receptor (Homo sapiens, UniProt P20309); settings: for Emax: read-out: M3 Efficacy
T2 construct: expressed in transfected cells; host or cells: CHO (M3-CHO)
T2 sequence (P20309 whole entry): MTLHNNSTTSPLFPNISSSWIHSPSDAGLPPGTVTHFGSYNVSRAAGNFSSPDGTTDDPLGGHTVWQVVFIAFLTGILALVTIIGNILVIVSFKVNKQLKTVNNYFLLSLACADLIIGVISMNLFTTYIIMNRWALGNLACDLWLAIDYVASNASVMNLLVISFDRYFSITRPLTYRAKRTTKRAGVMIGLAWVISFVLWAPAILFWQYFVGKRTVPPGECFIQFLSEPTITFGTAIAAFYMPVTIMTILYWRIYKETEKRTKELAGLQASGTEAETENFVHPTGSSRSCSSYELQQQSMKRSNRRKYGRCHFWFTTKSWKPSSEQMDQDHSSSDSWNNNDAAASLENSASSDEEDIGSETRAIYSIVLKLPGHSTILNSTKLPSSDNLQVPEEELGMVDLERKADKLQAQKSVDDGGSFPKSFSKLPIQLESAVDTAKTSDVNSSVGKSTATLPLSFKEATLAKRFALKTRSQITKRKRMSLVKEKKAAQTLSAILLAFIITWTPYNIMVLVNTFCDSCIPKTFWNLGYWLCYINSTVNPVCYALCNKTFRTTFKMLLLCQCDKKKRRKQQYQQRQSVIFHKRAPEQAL

M4 muscarinic receptor = target: T3, M4 muscarinic receptor (Homo sapiens, UniProt P08173); settings: for Emax: read-out: M4 Efficacy
T3 construct: expressed in transfected cells; host or cells: CHO (M4-CHO)
T3 sequence (P08173 1-479): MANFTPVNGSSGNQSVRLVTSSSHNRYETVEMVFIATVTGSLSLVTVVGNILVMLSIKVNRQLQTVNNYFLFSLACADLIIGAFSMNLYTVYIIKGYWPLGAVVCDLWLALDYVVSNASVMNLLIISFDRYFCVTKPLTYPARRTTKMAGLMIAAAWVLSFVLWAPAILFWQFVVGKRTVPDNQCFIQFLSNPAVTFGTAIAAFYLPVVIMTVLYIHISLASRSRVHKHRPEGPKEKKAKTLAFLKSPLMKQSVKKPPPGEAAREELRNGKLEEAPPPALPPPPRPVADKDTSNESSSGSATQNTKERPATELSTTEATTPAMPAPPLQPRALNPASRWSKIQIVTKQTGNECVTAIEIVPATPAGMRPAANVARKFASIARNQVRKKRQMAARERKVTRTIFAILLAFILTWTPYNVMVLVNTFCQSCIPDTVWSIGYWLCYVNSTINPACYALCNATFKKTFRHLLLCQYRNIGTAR

M1 muscarinic receptor = target: T4, M1 muscarinic receptor (Homo sapiens, UniProt P11229); settings: for Emax: read-out: M1 Efficacy
T4 construct: expressed in transfected cells; host or cells: CHO (M1-CHO)
T4 sequence (P11229 1-460): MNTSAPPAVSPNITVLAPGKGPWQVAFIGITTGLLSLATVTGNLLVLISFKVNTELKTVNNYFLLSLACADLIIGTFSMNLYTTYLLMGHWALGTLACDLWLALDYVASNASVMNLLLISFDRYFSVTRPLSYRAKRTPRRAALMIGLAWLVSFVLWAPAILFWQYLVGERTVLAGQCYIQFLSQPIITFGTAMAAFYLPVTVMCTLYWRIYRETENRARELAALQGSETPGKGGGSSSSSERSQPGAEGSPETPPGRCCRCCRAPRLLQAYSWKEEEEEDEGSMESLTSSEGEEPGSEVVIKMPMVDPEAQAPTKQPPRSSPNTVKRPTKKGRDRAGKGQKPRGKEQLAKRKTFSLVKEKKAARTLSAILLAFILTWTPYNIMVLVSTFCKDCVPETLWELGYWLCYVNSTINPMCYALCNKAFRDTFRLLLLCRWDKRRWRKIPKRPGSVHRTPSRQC

Q: With `CCOC(=O)N1C2CCC1CC(N1CCC(N(C)c3ccc(F)cc3)CC1)C2` (stereo not drawn) [Compound 9] as the compound, how does the EC50 (M2 muscarinic receptor) read?
A: > 5 µM

Q: What about the Emax (M2 muscarinic receptor) of the same compound?
A: < 25%

Q: And the EC50 (M3 muscarinic receptor)?
A: > 5 µM

Q: And the Emax (M3 muscarinic receptor)?
A: < 25%

Q: And the EC50 (M4 muscarinic receptor)?
A: > 5 µM

Q: And the Emax (M4 muscarinic receptor)?
A: 25 to 100%

Q: And the EC50 (M1 muscarinic receptor)?
A: > 5000 nM

Q: And the Emax (M1 muscarinic receptor)?
A: 25 to 100%

Q: For `CCOC(=O)N1C2CCC1CC(N1CCC(N(C(C)=O)C3CCCC3)CC1)C2` (stereo not drawn) [Compound 15], which EC50 (M2 muscarinic receptor) is on record?
A: < 2 µM

Q: And the Emax (M2 muscarinic receptor)?
A: 25 to 100%

Q: What about the EC50 (M3 muscarinic receptor) of the same compound?
A: 2 to 5 µM

Q: And the Emax (M3 muscarinic receptor)?
A: 25 to 100%

Q: And the EC50 (M4 muscarinic receptor)?
A: < 2 µM

Q: And the Emax (M4 muscarinic receptor)?
A: 25 to 100%

Q: What about the EC50 (M1 muscarinic receptor) of the same compound?
A: < 2000 nM

Q: And the Emax (M1 muscarinic receptor)?
A: 25 to 100%

Q: Which results are given for `CCCN(C1CCN(C2CC3CCC(C2)N3C(=O)OCC)CC1)S(=O)(=O)c1ccc(C(F)(F)F)cc1` (stereo not drawn) [Compound 19]?
A: EC50 (M2 muscarinic receptor): > 5 µM; Emax (M2 muscarinic receptor): < 25%; EC50 (M3 muscarinic receptor): > 5 µM; Emax (M3 muscarinic receptor): < 25%; EC50 (M4 muscarinic receptor): > 5 µM; Emax (M4 muscarinic receptor): < 25%; EC50 (M1 muscarinic receptor): > 5000 nM; Emax (M1 muscarinic receptor): < 25%

Q: How did the EC50 (M2 muscarinic receptor) turn out when `CCOC(=O)N1C2CCC1CC(N1CCC(N(CC(=O)CC)c3ccc(F)cc3)CC1)C2` (stereo not drawn) [Compound 20] was run?
A: > 5 µM

Q: What about the Emax (M2 muscarinic receptor) of the same compound?
A: < 25%

Q: And the EC50 (M3 muscarinic receptor)?
A: > 5 µM

Q: And the Emax (M3 muscarinic receptor)?
A: < 25%

Q: What about the EC50 (M4 muscarinic receptor) of the same compound?
A: > 5 µM

Q: What about the Emax (M4 muscarinic receptor) of the same compound?
A: < 25%

Q: What about the EC50 (M1 muscarinic receptor) of the same compound?
A: < 2000 nM

Q: What about the Emax (M1 muscarinic receptor) of the same compound?
A: 25 to 100%

Q: With `CCOC(=O)N1C2CCC1CC(N1CCC(N(CC(=O)CC)c3ccc(F)cc3)CC1)C2` (stereo not drawn) [Compound 25] as the compound, how does the EC50 (M2 muscarinic receptor; read-out: M2 Activity) read?
A: > 5 µM

Q: What about the EC50 (M3 muscarinic receptor; read-out: M3 Activity) of the same compound?
A: > 5 µM

Q: And the EC50 (M4 muscarinic receptor; read-out: M4 Activity)?
A: > 5 µM

Q: What about the EC50 (M1 muscarinic receptor; read-out: M1 Activity) of the same compound?
A: < 2000 nM

Q: `CCOC(=O)N1C2CCC1CC(N1CCC(N(C)c3ccccc3)CC1)C2` (stereo not drawn) [Compound 27] was tested. Which EC50 (M2 muscarinic receptor) did it give?
A: > 5 µM

Q: And the Emax (M2 muscarinic receptor)?
A: < 25%

Q: And the EC50 (M3 muscarinic receptor)?
A: > 5 µM

Q: What about the Emax (M3 muscarinic receptor) of the same compound?
A: < 25%

Q: And the EC50 (M4 muscarinic receptor)?
A: > 5 µM

Q: What about the Emax (M4 muscarinic receptor) of the same compound?
A: < 25%

Q: And the EC50 (M1 muscarinic receptor)?
A: < 2000 nM

Q: And the Emax (M1 muscarinic receptor)?
A: 25 to 100%

Q: What does the source list for `CCOC(=O)N1C2CCC1CC(N1CCC(N(CC(C)C)S(=O)(=O)c3ccc(C(F)(F)F)cc3)CC1)C2` (stereo not drawn) [Compound 28]?
A: EC50 (M2 muscarinic receptor): > 5 µM; Emax (M2 muscarinic receptor): < 25%; EC50 (M3 muscarinic receptor): > 5 µM; Emax (M3 muscarinic receptor): < 25%; EC50 (M4 muscarinic receptor): > 5 µM; Emax (M4 muscarinic receptor): < 25%; EC50 (M1 muscarinic receptor): > 5000 nM; Emax (M1 muscarinic receptor): < 25%

Q: How did the EC50 (M2 muscarinic receptor) turn out when `CCOC(=O)N1C2CCC1CC(N1CCC(N(Cc3ccccc3)C(C)=O)CC1)C2` (stereo not drawn) [Compound 35] was run?
A: > 5 µM

Q: What about the Emax (M2 muscarinic receptor) of the same compound?
A: 25 to 100%

Q: And the EC50 (M3 muscarinic receptor)?
A: > 5 µM

Q: And the Emax (M3 muscarinic receptor)?
A: 25 to 100%

Q: And the EC50 (M4 muscarinic receptor)?
A: 2 to 5 µM

Q: What about the Emax (M4 muscarinic receptor) of the same compound?
A: 25 to 100%

Q: And the EC50 (M1 muscarinic receptor)?
A: < 2000 nM

Q: And the Emax (M1 muscarinic receptor)?
A: 25 to 100%

Q: With `CCOC(=O)N1C2CCC1CC(N1CCC(N(CC)c3ccccc3)CC1)C2` (stereo not drawn) [Compound 37, 3-[4-(ethyl-phenyl-amino)-piperidin-1-yl]-8-azabicyclo[3.2.1]octane-8-carboxylic acid ethyl ester] as the compound, how does the EC50 (M2 muscarinic receptor) read?
A: > 5 µM

Q: What about the Emax (M2 muscarinic receptor) of the same compound?
A: < 25%

Q: And the EC50 (M3 muscarinic receptor)?
A: > 5 µM

Q: What about the Emax (M3 muscarinic receptor) of the same compound?
A: < 25%

Q: And the EC50 (M4 muscarinic receptor)?
A: < 2 µM

Q: What about the Emax (M4 muscarinic receptor) of the same compound?
A: < 25%

Q: What about the EC50 (M1 muscarinic receptor) of the same compound?
A: < 2000 nM

Q: What about the Emax (M1 muscarinic receptor) of the same compound?
A: 25 to 100%

Q: Which EC50 (M2 muscarinic receptor) does the source give for `CCOC(=O)N1C2CCC1CC(N1CCC(N(C(C)=O)C(C)C)CC1)C2` (stereo not drawn) [Compound 60] here?
A: > 5 µM

Q: And the Emax (M2 muscarinic receptor)?
A: < 25%

Q: What about the EC50 (M3 muscarinic receptor) of the same compound?
A: > 5 µM

Q: And the Emax (M3 muscarinic receptor)?
A: < 25%

Q: And the EC50 (M4 muscarinic receptor)?
A: > 5 µM

Q: And the Emax (M4 muscarinic receptor)?
A: < 25%

Q: And the EC50 (M1 muscarinic receptor)?
A: 2000 to 5000 nM

Q: What about the Emax (M1 muscarinic receptor) of the same compound?
A: 25 to 100%

Q: Which results are given for `CCOC(=O)N1C2CCC1CC(N1CCC(N(C(C)=O)C3CCCCC3)CC1)C2` (stereo not drawn) [Compound 63]?
A: EC50 (M2 muscarinic receptor): 2 to 5 µM; Emax (M2 muscarinic receptor): < 25%; EC50 (M3 muscarinic receptor): 2 to 5 µM; Emax (M3 muscarinic receptor): 25 to 100%; EC50 (M4 muscarinic receptor): < 2 µM; Emax (M4 muscarinic receptor): 25 to 100%; EC50 (M1 muscarinic receptor): < 2000 nM; Emax (M1 muscarinic receptor): 25 to 100%

Q: What does the source list for `CCOC(=O)N1C2CCC1CC(N1CCC(Nc3ccc(F)cc3)CC1)C2` (stereo not drawn) [Compound 64, 3-[4-(4-Fluoro-phenylamino)-piperidin-1-yl]-8-aza-bicyclo[3.2.1]octane-8-carboxylic acid ethyl ester]?
A: EC50 (M2 muscarinic receptor): > 5 µM; Emax (M2 muscarinic receptor): < 25%; EC50 (M3 muscarinic receptor): > 5 µM; Emax (M3 muscarinic receptor): < 25%; EC50 (M4 muscarinic receptor): > 5 µM; Emax (M4 muscarinic receptor): < 25%; EC50 (M1 muscarinic receptor): 2000 to 5000 nM; Emax (M1 muscarinic receptor): 25 to 100%

Q: Which results are given for `CCOC(=O)N1C2CCC1CC(N1CCC(N(c3ccc(F)cc3)S(C)(=O)=O)CC1)C2` (stereo not drawn) [Compound 71, 3-{4-[(4-Fluoro-phenyl)-methanesulfonyl-amino]-piperidin-1-yl}-8-aza-bicyclo[3.2.1]octane-8-carboxylic acid ethyl ester]?
A: EC50 (M2 muscarinic receptor): > 5 µM; Emax (M2 muscarinic receptor): < 25%; EC50 (M3 muscarinic receptor): > 5 µM; Emax (M3 muscarinic receptor): 25 to 100%; EC50 (M4 muscarinic receptor): 2 to 5 µM; Emax (M4 muscarinic receptor): 25 to 100%; EC50 (M1 muscarinic receptor): < 2000 nM; Emax (M1 muscarinic receptor): 25 to 100%

Q: For `CCOC(=O)N1C2CCC1CC(N1CCC3(CCC(=O)N3c3ccccc3)CC1)C2` (stereo not drawn) [Compound 88, Ethyl 3-(2-oxo-1-phenyl-1,8-diazaspiro[4.5]decan-8-yl)-8-azabicyclo[3.2.1]octane-8-carboxylate], which EC50 (M2 muscarinic receptor) is on record?
A: < 2 µM

Q: What about the “M2 Efficacy” value (M2 muscarinic receptor) of the same compound?
A: ++ (key: +++: efficacy was calculated to be greater than 100%; ++: efficacy was calculated to be from 100% to 25%; +: efficacy was calculated to be less than 25%; −: no data was available)

Q: And the EC50 (M3 muscarinic receptor)?
A: > 5 µM

Q: What about the “M3 Efficacy” value (M3 muscarinic receptor) of the same compound?
A: + (key: +++: efficacy was calculated to be greater than 100%; ++: efficacy was calculated to be from 100% to 25%; +: efficacy was calculated to be less than 25%; −: no data was available)

Q: And the EC50 (M4 muscarinic receptor)?
A: < 2 µM

Q: And the “M4 Efficacy” value (M4 muscarinic receptor)?
A: ++ (key: +++: efficacy was calculated to be greater than 100%; ++: efficacy was calculated to be from 100% to 25%; +: efficacy was calculated to be less than 25%; −: no data was available)

Q: What about the EC50 (M1 muscarinic receptor) of the same compound?
A: < 2000 nM

Q: And the “M1 Efficacy” value (M1 muscarinic receptor)?
A: ++ (key: +++: efficacy was calculated to be greater than 100%; ++: efficacy was calculated to be from 100% to 25%; +: efficacy was calculated to be less than 25%; −: no data was available)
